Assays:
MC3T3-E1 cells = experiment: Alkaline phosphatase (ALP) activity in MC3T3-E1 cells; assay type: cell-based; conditions: Mus musculus, 72 h; 1 μM compound, 3 days, MC3T3-E1 cell; read-out: ALP activity (1 μM, % of Control) MC3T3-E1 cell
Description: Differentiation and activity of osteoblasts were indirectly evaluated by measuring an ALP activity having a close relationship with osteogenesis.
Osteoblasts (Calvarial cells) prepared in Experimental Example 1 and MC3T3-E1 cells (available from RIKEN Cell Bank, Japan) were collected in α-MEM supplemented with 10% FBS, followed by cell counting. The cells were dispensed into 24-well cultureware at a density of 2×10^4 cells/well. After culturing of the cells for 24 hours, the culture media were discarded and replaced with fresh media in which test compounds were diluted to a concentration of 1 μM (1 mL/well). In addition, the vehicle control group containing 0.1% DMSO was also treated. […] When the experiment was terminated, the supernatant was removed and the cells were washed three times with cold phosphate buffer at 4°. 0.2% Triton X-100 was added to the washed cells which were then subjected to three cycles of freezing at −70° and thawing at room temperature for the complete lysis of cells. The cell extracts were pooled and centrifuged to collect the cell supernatant which was used for the measurement of ALP activity and proteins. The protein concentration was measured using a BCA assay kit (manufactured by Sigma-Aldrich). For the measurement of ALP activity, p-nitrophenylphosphate was added to the cell supernatant which was then incubated at 37° for 30 minutes, and the reaction was terminated with the addition of 50 μL of 0.2N sodium hydroxide. The standard curve was plotted at the absorbance of 405 nm using p-nitrophenol as a standard material and then the absorbance of test materials thus reacted was measured to determine the production amount of p-nitrophenol.
The ALP activity was calculated by dividing the amount of p-nitrophenol produced from each test material by the protein amount and the reaction time. Therefore, the unit of ALP activity was given in terms of p-nitrophenol/μg protein/min. The results are given in Tables 28-1 and 28-2 where the ALP activity unit of each test material was given in terms of % change through the comparison between the individual test materials and the vehicle control group.

[1] = tested on: formation of osteoclasts in co-culture of bone marrow cells and osteoblasts; experiment: Osteoclastogenesis inhibition via co-culture system (TRAP staining); assay type: cell-based, mice; conditions: Mus musculus, Osteoclast, 168 h; 1 μM compound, 7 days co-culture, TRAP-positive multinucleated osteoclasts vs vehicle control
Outline: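 Bone marrow cells from male ddY mice were co-cultured with osteoblasts for 7 days in α-MEM/10% FBS with 10^−8 M 1α,25-dihydroxyvitamin D3 and dexamethasone. Compound was present at 1 μM final and refreshed every 2–3 days. TRAP-positive cells with 6–7 nuclei were counted, with % inhibition relative to DMSO vehicle (n=4).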

[2] = tested on: Osteoblasts (Calvarial cells); experiment: Alkaline phosphatase (ALP) activity in osteoblasts (Calvarial cells); assay type: cell-based, mice; conditions: Mus musculus, 72 h; 1 μM compound, 3 days, Calvarial cell; read-out: ALP activity (1 μM, % of Control) Calvarial cell
Outline: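 Primary calvarial osteoblasts or MC3T3-E1 cells in α-MEM with 10% FBS were treated with 1 μM compound, against a 0.1% DMSO vehicle. Cell lysates were incubated with p-nitrophenylphosphate at 37° for 30 minutes and read at 405 nm. ALP activity was expressed as p-nitrophenol/μg protein/min and reported as % change versus vehicle.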

[3] = tested on: Osteoblasts (Calvarial cells); conditions: ICR, mouse, 72 h, 1 μM

Cc1ccc(Nc2nc(NCCCn3ccnc3)ccc2[N+](=O)[O-])cc1 [Compound 9, 2-(4-methylphenylamino)-6-[(3-imidazol-1-yl)propylamino]-3-nitropyridine]
activity at 1 µM (MC3T3-E1 cells): 175%
inhibition at 1 µM [1]: 93%
activity at 1 µM [2]: 129%
Cell viability (%) Calvarial cell [3]: 121%

COc1ccc(Nc2nc(NCCCn3ccnc3)ccc2[N+](=O)[O-])cc1 [Compound 25, 2-(4-methoxyphenylamino)-6-[(3-imidazol-1-yl)propylamino]-3-nitropyridine]
activity at 1 µM (MC3T3-E1 cells): 148%
inhibition at 1 µM [1]: 98%
activity at 1 µM [2]: 126%
Cell viability (%) Calvarial cell [3]: 101%

CC(C)(C)c1ccc(Nc2nc(NCCCn3ccnc3)ccc2[N+](=O)[O-])cc1 [Compound 39, 2-[4-(t-butyl)phenylamino]-6-[(3-imidazol-1-yl)propylamino]-3-nitropyridine]
activity at 1 µM (MC3T3-E1 cells): 175%
inhibition at 1 µM [1]: 98%
Cell viability (%) Calvarial cell [3]: 111%

CC(C)(C)c1ccc(Nc2nc(NCCc3ccccn3)ccc2[N+](=O)[O-])cc1 [Compound 40, 2-[4-(t-butyl)phenylamino]-6-[2-(2-pyridyl)ethylamino]-3-nitropyridine]
activity at 1 µM (MC3T3-E1 cells): 210%
inhibition at 1 µM [1]: 89%
activity at 1 µM [2]: 126%
Cell viability (%) Calvarial cell [3]: 82%

N#Cc1ccc(Nc2nc(NCc3ccncc3)ccc2[N+](=O)[O-])cc1 [Compound 50, 2-(4-cyanophenylamino)-6-[(4-pyridyl)methylamino]-3-nitropyridine]
activity at 1 µM (MC3T3-E1 cells): 177%
inhibition at 1 µM [1]: 94%
activity at 1 µM [2]: 149%
Cell viability (%) Calvarial cell [3]: 115%

N#Cc1cccc(Nc2nc(NCCCn3ccnc3)ccc2[N+](=O)[O-])c1 [Compound 53, 2-[3-cyanophenylamino]-6-[(3-imidazol-1-yl)propylamino]-3-nitropyridine]
activity at 1 µM (MC3T3-E1 cells): 121%
inhibition at 1 µM [1]: 97%
activity at 1 µM [2]: 134%
Cell viability (%) Calvarial cell [3]: 115%

O=[N+]([O-])c1ccc(NCc2ccncc2)nc1Nc1ccc(-n2ccnc2)cc1 [Compound 94, 2-[4-(imidazol-1-yl)phenylamino]-6-[(4-pyridyl)methylamino]-3-nitropyridine]
activity at 1 µM (MC3T3-E1 cells): 134%
inhibition at 1 µM [1]: 93%
Cell viability (%) Calvarial cell [3]: 85%

CC(=O)c1cccc(Nc2nc(NCc3ccncc3)ccc2[N+](=O)[O-])c1 [Compound 103, 2-(3-acetylphenylamino)-6-[(4-pyridyl)methylamino]-3-nitropyridine]
activity at 1 µM (MC3T3-E1 cells): 151%
inhibition at 1 µM [1]: 74%
Cell viability (%) Calvarial cell [3]: 93%

O=[N+]([O-])c1ccc(N2CCC(O)CC2)nc1Nc1ccc(N2CCOCC2)cc1 [Compound 112, 2-(4-morpholinophenylamino)-6-(4-hydroxypiperidino)-3-nitropyridine]
activity at 1 µM (MC3T3-E1 cells): 148%
activity at 1 µM [2]: 122%
Cell viability (%) Calvarial cell [3]: 103%

O=[N+]([O-])c1ccc(NCc2cccnc2)nc1Nc1ccc(N2CCOCC2)cc1 [Compound 115, 2-(4-morpholinophenylamino)-6-[(3-pyridyl)methylamino]-3-nitropyridine]
activity at 1 µM (MC3T3-E1 cells): 148%
inhibition at 1 µM [1]: 89%
activity at 1 µM [2]: 127%

Reference: patent publication US20110306606A1, “NOVEL 2,6-SUBSTITUTED-3-NITROPYRIDINE DERIVATIVE, METHOD FOR PREPARING SAME, AND PHARMACEUTICAL COMPOSITION INCLUDING SAME” (priority 2008, published 2011)
